From publication PMC3335862, “Novel Small-Molecule Inhibitors of Hepatitis C Virus Entry Block Viral Spread and Promote Viral Clearance in Cell Culture” (PLoS ONE, 2012)
Like-named read-outs stand apart in the source and are kept apart here.

Tests used:
[1] = system: HCVpp pseudotyped with the GT1a envelope; experiment: microbe, parasite or virus in culture; format: cell-based; conditions: Hepatitis C virus, Hep3B cells, 72 h
HCVpp GT 1b = experiment: microbe, parasite or virus in culture; format: cell-based; conditions: Hepatitis C virus, GT1B
HCVpp genotype 4 = experiment: microbe, parasite or virus in culture; format: cell-based; conditions: Hepatitis C virus; n = 1 strain
[2] = system: HCVpp typed with envelopes representing genotypes 2a, 2b, 3, and 6; experiment: microbe, parasite or virus in culture; format: cell-based; conditions: Hepatitis C virus
VSVpp = experiment: microbe, parasite or virus in culture; format: cell-based, VSV
GT 1a/2a HCV [3] = experiment: HCV viral spread assay (cell-free and cell-cell transmission), flow cytometry; format: cell-based, hepatitis C virus; conditions: 72 h; PRO0371155 1 µM, PA-25 10 µg/mL; DMSO control 18.3, Background 0.31
Description: Figure 3 PRO0371155 inhibits HCV infection by both cell-free and cell-cell modes of transmission. […] TEXT PRINTED IN THE PICTURE: PA-25: 7.54; 19.9; 66.8; 5.75 | DMSO: 4.4; 29.8; 47.6; 18.3 | PRO0371155: 8.1; 25.7; 65.7; 0.48 DOUBTS OF THE COPYIST ABOUT THIS PICTURE: All values are quadrant numbers of flow cytometry plots, given in the order upper left, upper right, lower left, lower right. The picture prints no measure or unit with them. / The print is very small, so 3, 5, 6, 8 and 9 cannot be told apart with certainty in any of the values below. / PA-25: 7.54, 19.9, 66.8 (partly hidden by data points; may be 65.8 or 68.8), 5.75 / DMSO: 4.4, 29.8 (or 29.6), 47.6 (partly hidden by data points; may be 47.8), 18.3 (or 18.8) / PRO0371155: 8.1, 25.7, 65.7 (partly hidden by data points), 0.48 (or 0.46) / The plot headed 'Background' (0.016, 5.44e-3, 99.7, 0.31) is left out because it is a staining control and not a substance.
8.8.7 software (TreeStar).
To determine whether the triazine series can block both routes of infection, we utilized a flow cytometry-based cell-to-cell transmission assay. Infected cells, stained with CellTracker green, were mixed with naïve cells in the presence or absence of entry inhibitors.

HCVpp GT1a Pass. Ctrl. = experiment: microbe, parasite or virus in culture; format: cell-based; conditions: Hepatitis C virus, envelope from DMSO passage control culture
HCVpp T388A = format: cell-based, hepatitis C virus
HCVpp V719G = format: cell-based, hepatitis C virus; conditions: GT1a background
HCVpp GT1a-V719L = format: cell-based, hepatitis C virus; conditions: GT1a background
HCVpp GT 1a-V719I = format: cell-based, hepatitis C virus
HCVpp GT 1a V719A = format: cell-based, hepatitis C virus
HCVpp GT 1b-V719L = format: cell-based, hepatitis C virus; conditions: Genotype 1b background
HCVpp GT 1b-V719I = format: cell-based, hepatitis C virus; conditions: Genotype 1b background
HCVpp GT 1b V719A = format: cell-based, hepatitis C virus; conditions: Genotype 1b background
[4] = system: Hep3B, Huh-7, 293T, HeLa, Daudi, Ramos, Jurkat, primary hepatocyte; conditions: CellTiter Glo assay; data not shown except Hep3B
in vitro = conditions: human
GT 1a/2a HCV [5] = experiment: HCV cell culture infection assay (Renilla luciferase), GT 1a/2a; conditions: Hepatitis C virus, GT1A, read-out: HCV Cell Culture EC50 GT 1a/2a
GT 1b/2a HCV = experiment: HCV cell culture infection assay (Renilla luciferase), GT 1b/2a; conditions: Hepatitis C virus, GT1B, read-out: HCV Cell Culture EC50 GT 1b/2a
GT 1a/2a HCV [6] = experiment: Quantification of HCV RNA by qRT-PCR in long term treated cultures
GT 1a/2a HCV [7] = system: GT 1a/2a HCV
[8] = culture initially 33% HCV+, 1 µM

CS(=O)(=O)N1CCC(Nc2nc(Nc3cccc(C(F)(F)F)c3)nc(OCC(F)(F)F)n2)CC1 [PRO0371155]
EC50 ([1]; median across panel of GT 1a envelopes from HCV+ patient sera (n = strains), read-out: HCVpp Median EC50 GT 1a): 9 nM
EC50 ([1]; prototypical/parent GT 1a envelope, read-out: GT1a (EC50), HCVpp): 2 nM
EC50 (HCVpp GT 1b; Hep3B, parent GT 1b envelope, read-out: EC50, HCVpp GT 1b): 317 nM
EC50 (HCVpp GT 1b; median across panel of GT 1b envelopes from HCV+ patient sera (n = strains), Hep3B cells, 72 h, read-out: HCVpp Median EC50 GT 1b): > 825 nM
EC50 (HCVpp genotype 4): 190 nM
EC50 [2]: > 1000 nM
inhibition of entry of pseudoviral particles with envelope glycoproteins from irrelevant viruses including VSV (VSVpp): did not inhibit
EC50 (VSVpp; Vesicular stomatitis virus, read-out: VSVpp EC50): 39 µM
newly infected HCV+ cells (lower right quadrant) (GT 1a/2a HCV [3]): 0.48%
EC50 (HCVpp GT1a Pass. Ctrl.): 4 nM
influence of T388A on susceptibility in the HCVpp assay (HCVpp T388A): did not have any influence
EC50 (HCVpp T388A; GT1a background): 2 nM
EC50 (HCVpp V719G): > 1000 nM
loss in susceptibility, V719G vs GT1a in the HCVpp assay (HCVpp V719G): > 500 fold
reduction in activity vs parent GT1a envelope, V719L (HCVpp GT1a-V719L): 500 fold
reduction in potency vs parent GT1a envelope, V719I (HCVpp GT 1a-V719I; GT1a background): 34 fold
EC50 (HCVpp GT 1a-V719I; Genotype 1a background): 67 nM
fold change of EC50 vs parent GT 1a, V719I (HCVpp GT 1a-V719I; Genotype 1a background): 34 ×
reduction in potency vs parent GT1a envelope, V719A (HCVpp GT 1a V719A; GT1a background): 46 fold
EC50 (HCVpp GT 1a V719A; Genotype 1a background): 92 nM
fold change of EC50 vs parent GT 1a, V719A (HCVpp GT 1a V719A; Genotype 1a background): 46 ×
EC50 (HCVpp GT 1b-V719L): > 1000 nM
fold change of EC50 vs parent GT 1b, V719L (HCVpp GT 1b-V719L): 3 ×
EC50 (HCVpp GT 1b-V719I): > 1000 nM
fold change of EC50 vs parent GT 1b, V719I (HCVpp GT 1b-V719I): 3 ×
EC50 (HCVpp GT 1b V719A): 273 nM
fold change of EC50 vs parent GT 1b, V719A (HCVpp GT 1b V719A): 0.9 ×
cytotoxicity against a panel of cell lines and primary cells [4]: minimal cytotoxicity
CC50 (in vitro): 31 µM
EC50 (GT 1a/2a HCV [5]): 9 nM
EC50 (GT 1b/2a HCV): > 1000 nM
time HCV RNA maintained at background levels after removal of compound (GT 1a/2a HCV [6]): > 50 days
HCV RNA levels (GT 1a/2a HCV [6]; after 100 days in the presence of compound, 1 µM, limit of quantification): < 0.5 copies/cell
change in percentage of HCV+ cells (NS3 staining) (GT 1a/2a HCV [7]; 20% HCV+ at baseline, PRO0371155 1 µM, IFN-alpha 10 IU/mL): more gradual decline
day of viral breakthrough in the presence of compound (GT 1a/2a HCV [7]; [8]): 21 days
time to loss of viral suppression and emergence of drug resistance (GT 1a/2a HCV [7]; [8]): ~3 weeks
fate of infected cells on long term treatment (GT 1a/2a HCV [7]; culture initially 90% HCV+, 1 µM): eradicated
viral rebound during washout period (GT 1a/2a HCV [7]; drug released at day 116, passaged additional 30 days, 90% HCV+ culture): not observed
